Test results: PMC4724192 (Biochemistry, 2014)
Where “and” joins values, the source holds several entries; their conditions need not be identical. Equal entries are not always repeated. Where two headings read alike, the source gives them in different places.

Columns and labels:
2P-ERK2 [1] = biological target: T1, 2P-ERK2 (Rattus norvegicus, UniProt P63086); assay: Preincubation / 300-fold dilution experiment, recovery of activity; settings: for kinetic behaviour of binding and release: linear product accumulation, rapid recovery on dilution
2P-ERK2 [2] = biological target: T1, 2P-ERK2; settings: for mode of inhibition (Lineweaver-Burk replots): 2P-ERK2, varying ATP; for Ki: 2P-ERK2, rapid on/off inhibitors, varying ATP, 20 μM sub-D
2P-ERK2 [3] = biological target: T1, 2P-ERK2; settings: read-out: IC50 This study; 2P-ERK2, 20 μM sub-D, 100 μM ATP, 25 °C; eq 1
ERK2 = settings: read-out: IC50 Published previously; cited from earlier work
ERK [4] = settings: read-out: IC50 in vivo (biological activity); cited from earlier work
0P-ERK2 = 0P-ERK2 (Rattus norvegicus, UniProt P63086); assay: biochemical
ERK [5] = settings: read-out: Kd in vitro; cited from earlier work
2P-ERK2 [6] = biological target: T1, 2P-ERK2; format: biochemical
2P-ERK2 [7] = biological target: T1, 2P-ERK2; assay: Morrison titration experiment for tight-binding inhibitors; format: biochemical

T1 sequence (P63086 whole entry): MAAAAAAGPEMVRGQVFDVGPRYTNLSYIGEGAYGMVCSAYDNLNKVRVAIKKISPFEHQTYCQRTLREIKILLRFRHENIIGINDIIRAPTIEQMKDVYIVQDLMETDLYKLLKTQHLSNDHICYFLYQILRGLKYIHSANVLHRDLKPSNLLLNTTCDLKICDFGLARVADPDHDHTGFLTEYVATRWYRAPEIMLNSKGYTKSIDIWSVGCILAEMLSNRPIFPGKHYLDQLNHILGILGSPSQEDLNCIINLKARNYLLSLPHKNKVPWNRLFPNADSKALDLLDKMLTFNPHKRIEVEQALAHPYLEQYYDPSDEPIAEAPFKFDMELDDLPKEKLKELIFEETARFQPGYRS
0P-ERK2, sequence (P63086 whole entry): as above

In the case of `Cn1cnc2c(NCc3ccccc3)nc(NCCO)nc21` [Olomoucin], the “kinetic behaviour of binding and release” value (2P-ERK2 [1]; 2P-ERK2) is reported as “rapid on/off inhibitors”, the “mode of inhibition (Lineweaver-Burk replots)” value (2P-ERK2 [2]) is reported as “competitive versus ATP” and the Ki (2P-ERK2 [2]) is reported as 10800 nM. It also gave an IC50 (2P-ERK2 [3]) of 33000 nM.
For `Nc1nccc(-c2c(-c3ccc(F)cc3)ncn2C2CCNCC2)n1` [SB220025], the “kinetic behaviour of binding and release” value (2P-ERK2 [1]; 2P-ERK2) was “rapid on/off inhibitors”.
For `Nc1[nH]nc2nnc(-c3c(-c4ccccc4)nn4ccccc34)cc12` [FR180204], the “kon (rate constant for association), lower bound” value (2P-ERK2 [1]; 2P-ERK2, inferred from dissociation rate constant >0.05 s^−1) was >0.8 ^d μM^−1 s^−1, the “kinetic behaviour of binding and release” value (2P-ERK2 [1]; 2P-ERK2) was “rapid on/off inhibitors” and the “mode of inhibition (Lineweaver-Burk replots)” value (2P-ERK2 [2]) was “competitive versus ATP”. The Ki (2P-ERK2 [2]) was 63 ± 17 nM, the IC50 (ERK2) was 140 nM and the IC50 (2P-ERK2 [3]) was 330 ± 64 nM.
For `O=C(Nc1ccc2[nH]nc(-c3ccncc3)c2c1)[C@@H]1CCN(CC(=O)N2CCN(c3ccc(-c4ncccn4)cc3)CC2)C1` [SCH772984], the IC50 (ERK [4]) is given as < 100 nM and 60 nM, the Kd (2P-ERK2 [1]) is given as 0.11 ± 0.021 nM and the “residence time (inverse of koff)” value (2P-ERK2 [1]; 2P-ERK2, predicted from koff) is given as 0.9 h. For the same compound, the koff (2P-ERK2 [1]; read-out: koff (dissociation rate constant)) was 0.000306 s⁻¹, the IC50 (ERK2) was 0.24 nM and the Ki (0P-ERK2) was 0.12 ± 0.04 nM. The Kd (ERK [5]) was 0.19 nM, the “kinetic behaviour of onset of inhibition” value (2P-ERK2 [6]; 2P-ERK2, curved product accumulation) was “slow-onset inhibition” and the kon (2P-ERK2 [6]; read-out: kon (apparent rate constant for association)) was 2.8e+06 ± 340000 M⁻¹ s⁻¹. For the same compound, the Ki (2P-ERK2 [7]) was 0.12 ± 0.1 nM.
